Laboratory results published in ChEMBL document CHEMBL4715932, “Positional Isomers of Biphenyl Antimicrobial Peptidomimetic Amphiphiles” (ACS Med Chem Lett, 2021).

Tests used:
[1] = Cytotoxicity against human HEK-293 cells incubated for 23 hrs by CO-ADD method; type: cell-based, HEK293
Streptococcus pneumoniae = test: Antibacterial activity against Streptococcus pneumoniae ATCC 49619 assessed as inhibition of growth visually by CLSI method; type: functional
Clostridioides difficile [2] = test: Antibacterial activity against Clostridioides difficile NSW 132 (RT027) assessed as inhibition of growth visually preincubated for 2 to 4 hrs measured after 48 hrs by CLSI method; type: functional; conditions: time hrs <=52
Escherichia coli [3] = test: Antibacterial activity against Escherichia coli ATCC 10418 assessed as inhibition of growth visually by CLSI method; type: functional
Enterococcus faecalis [4] = test: Antibacterial activity against vancomycin-resistant Enterococcus faecalis ATCC 51299 assessed as inhibition of growth visually by CLSI method; type: functional
Clostridioides difficile [5] = test: Antibacterial activity against Clostridioides difficile ATCC 700057 assessed as inhibition of growth visually preincubated for 2 to 4 hrs measured after 48 hrs by CLSI method; type: functional; conditions: time hrs <=52
[6] = Hemolytic activity in human RBC assessed as maximal hemolysis at <= 32 ug/ml incubated for 1 hr by CO-ADD method; type: cell-based, Erythrocyte; conditions: red blood cells (erythrocytes), dose <=32 µg/ml, read-out: Activity
Cryptococcus neoformans = test: Antifungal activity against Cryptococcus neoformans H99 ATCC 208821 assessed as growth inhibition incubated for 36 hrs; type: functional; conditions: var. grubii H99 ATCC 208821
Acinetobacter baumannii = test: Antimicrobial activity against Acinetobacter baumannii ATCC 19606 assessed as growth inhibition incubated for 18 hrs; type: functional
Enterococcus faecalis [7] = test: Antibacterial activity against Enterococcus faecalis ATCC 29212 assessed as inhibition of growth visually by CLSI method; type: functional
[8] = Hemolytic activity in sheep RBC assessed as hemolysis at 50 microg/ml incubated for 2 hrs; type: ADME, cell-based, Ovis aries, Erythrocyte; conditions: red blood cells (erythrocytes), at 50 µg/mL, read-out: Activity
Pseudomonas aeruginosa = test: Antimicrobial activity against Pseudomonas aeruginosa ATCC 27853 assessed as growth inhibition incubated for 18 hrs; type: functional
Candida albicans = test: Antifungal activity against Candida albicans ATCC 90028 assessed as growth inhibition incubated for 36 hrs; type: functional; conditions: 28A ATCC 90028
[9] = Hemolytic activity in sheep RBC assessed as hemolysis at 5 microg/ml incubated for 2 hrs by CO-ADD method; type: ADME, cell-based, Ovis aries, Erythrocyte; conditions: red blood cells (erythrocytes), at 5 µg/mL, read-out: Activity
[10] = Hemolytic activity in human RBC assessed as hemolysis incubated for 1 hr by CO-ADD method; type: ADME, cell-based, Erythrocyte; conditions: red blood cells (erythrocytes)
Staphylococcus aureus [11] = test: Antibacterial activity against methicillin-resistant Staphylococcus aureus NCTC 10442 assessed as inhibition of growth visually by CLSI method; type: functional
[12] = Cytotoxicity against human HEK-293 cells assessed as maximal inhibition at <= 32 ug/ml incubated for 23 hrs by CO-ADD method; type: cell-based, HEK293; conditions: dose <=32 µg/ml, read-out: Imax
Klebsiella pneumoniae = test: Antimicrobial activity against multidrug-resistant Klebsiella pneumoniae ATCC 700603 assessed as growth inhibition incubated for 18 hrs; type: functional
Staphylococcus aureus [13] = test: Antibacterial activity against Staphylococcus aureus ATCC 29213 assessed as inhibition of growth visually by CLSI method; type: functional
Staphylococcus aureus [14] = test: Antimicrobial activity against methicillin resistant Staphylococcus aureus ATCC 43300 assessed as growth inhibition incubated for 18 hrs; type: functional
Staphylococcus aureus [15] = test: Antibacterial activity against vancomycin intermediate susceptibility Staphylococcus aureus Mu50 assessed as inhibition of growth visually by CLSI method; type: functional
Escherichia coli [16] = test: Antimicrobial activity against Escherichia coli ATCC 25922 assessed as growth inhibition incubated for 18 hrs; type: functional

Work on CC(C)CCOc1ccc(-c2ccccc2OCc2cn(C[C@@H](CCCCN)NC(=O)[C@@H](CCCNC(=N)N)n3cc(CC4CCCCC4)nn3)nn2)cc1.Cl.Cl yielded a CC50 at 23 h [1] of over 32 mg/L, an MIC (Streptococcus pneumoniae) of 1 mg/L and an MIC (Clostridioides difficile [2]) of 16 mg/L. The MIC (Escherichia coli [3]) was 4 mg/L, the MIC (Enterococcus faecalis [4]) was 8 mg/L and the MIC (Clostridioides difficile [5]) was 16 mg/L. The hemolysis at 1 h [6] was 41%, the MIC80 (Cryptococcus neoformans) was over 32 mg/L and the MIC80 (Acinetobacter baumannii) was 4 mg/L. The MIC (Enterococcus faecalis [7]) was 4 mg/L, the hemolysis at 2 h, 50 microg/ml [8] was 63% and the MIC80 (Pseudomonas aeruginosa) was 8 mg/L. It also gave an MIC80 (Candida albicans) of over 32 mg/L, a hemolysis at 2 h, 5 microg/ml [9] of 2.7% and an HC50 at 1 h [10] of over 32 µg/mL. It also gave an MIC (Staphylococcus aureus [11]) of 2 mg/L, an Emax at 23 h [12] of 13% and an MIC80 (Klebsiella pneumoniae) of 32 mg/L. The MIC (Staphylococcus aureus [13]) was 4 mg/L, the MIC80 (Staphylococcus aureus [14]) was at most 0.25 mg/L and the MIC (Staphylococcus aureus [15]) was 4 mg/L. The MIC80 (Escherichia coli [16]) was 4 mg/L.
